Among the data in US7338958B2, “Sulfoximine-substituted pyrimidines as CDK-and/or VEGF inhibitors, their production and use as pharmaceutical agents” (Schering AG, priority 2003, dated 2008) are IC50 values, retold here.

pIC50: −log10 of the molar value. Where two headings read alike, the source gives them in different places. A value given as a limit tells only on which side of the number the result lay.

For test [1], the system named is MCF7, hormone-independent human breast cancer cells. The test can be described thus: Proliferation assay, MCF7. The note with it: MCF7, 96 h, 4 days incubation, crystal violet. It counts as cell-based. From the text: (§1) Cultivated human tumor cells (MCF7, hormone-independent human breast cancer cells, related to ATCC HTB22; NCI-H460, human non-small-cell lung cancer cells, ATCC HTB-177, HCT 116, human colon cancer cells, ATCC CCL-247; DU 145, hormone-independent human prostate cancer cells, ATCC HTB-81; MaTu-MDR, hormone-independent, multiple pharmaceutical agent-resistant human breast cancer cells, EPO-GmbH, Berlin) were flattened out at a density of about 5000 cells/measuring point, depending on the growth rate of the respective cells, in a 96-well multititer plate in 200 μl of the corresponding growth medium. After 24 hours, the cells of one plate (zero-point plate) were colored with crystal violet (see below), while the medium of the other plates was replaced by fresh culture medium (200 μl), to which the test substances were added in various concentrations (0 μm, as well as in the range of 0.01-30 μm; the final concentration of the solvent dimethyl sulfoxide was 0.5%). The cells were incubated for 4 days in the presence of test substances. The cell proliferation was determined by coloring the cells with crystal violet: the cells were fixed by adding 20 μl/measuring point of an 11% glutaric aldehyde solution for 15 minutes at room temperature. After three washing cycles of the fixed cells with water, the plates were dried at room temperature. The cells were colored by adding 100 μl/measuring point of a 0.1% crystal violet solution (the pH was set at 3 by adding acetic acid). After three washing cycles of the colored cells with water, the plates were dried at room temperature. The dye was dissolved by adding 100 μl/measuring point of a 10% acetic acid solution. The extinction was determined by photometry at a wavelength of 595 nm. The change of cell growth, in percent, was calculated by normalization of the measured values to the extinction values of the zero-point plate (=0%) and the extinction of the untreated (0 μm) cells (=100%).

The target in another test is T1, CDK2/CycE (Homo sapiens, UniProt P24941).
T1 construct: GST; purchased ProQinase GmbH, Freiburg; host or cells: baculovirus-infected insect cells (Sf9)
The test can be described thus: CDK2/CycE Kinase Assay. The test is classed as biochemical. The conditions noted are these: histone IIIS substrate, 33P-ATP, 15 minutes at 22° C. The procedure: Recombinant CDK2- and CycE-GST-fusion proteins, purified from baculovirus-infected insect cells (Sf9), were purchased by ProQinase GmbH, Freiburg. Histone IIIs, which was used as a kinase substrate, was purchased by the Sigma Company.
CDK2/CycE (50 ng/measuring point) was incubated for 15 minutes at 22° C. in the presence of various concentrations of test substances (0 μm, as well as within the range of 0.01-100 μm) in assay buffer [50 mmol of tris/HCl, pH 8.0, 10 mmol of MgCl2, 0.1 mmol of Na ortho-vanadate, 1.0 mmol of dithiothreitol, 0.5 μm of adenosine triphosphate (ATP), 10 μg/measuring point of histone IIIS, 0.2 μCi/measuring point of ^33P-gamma ATP, 0.05% NP40, 12.5% dimethyl sulfoxide]. The reaction was stopped by adding EDTA solution (250 mmol, pH 8.0, 14 μl/measuring point).
From each reaction batch, 10 μl was applied to P30 filter strips (Wallac Company), and non-incorporated ^33P-ATP was removed by subjecting the filter strips to three washing cycles for 10 minutes each in 0.5% phosphoric acid. After the filter strips were dried for one hour at 70° C., the filter strips were covered with scintillator strips (MeltiLex™ A, Wallac Company) and baked for one hour at 90° C. The amount of incorporated ^33P (substrate phosphorylation) was determined by scintillation measurement in a gamma-radiation measuring device (Wallac).

Test [2] concerns the target T2, VEGF receptor tyrosine kinase-2 (Homo sapiens, UniProt P35968).
T2 construct: GST; made in house; host or cells: baculovirus-infected insect cells (Sf9)
The test can be described thus: VEGF Receptor-2 Kinase Assay. The note with it: 33P-ATP, 10 minutes at 22° C. The test is classed as biochemical. The procedure: VEGF Receptor-2 Kinase Assay
Recombinant VEGF receptor tyrosine kinase-2 was purified as a GST fusion protein from baculovirus-infected insect cells (Sf9). Poly-(Glu4Tyr), which was used as a kinase substrate, was purchased by the Sigma Company.
VEGF receptor tyrosine kinase (90 ng/measuring point) was incubated for 10 minutes at 22° C. in the presence of various concentrations of test substances (0 μm, as well as within the range of 0.001-30 μm) in 30 μl of assay buffer [40 mmol of Tris/HCl, […], 10 mmol of MgCl2, 1 mmol of MnCl2, 3 μmol of Na ortho-vanadate, 1.0 mmol of dithiothreitol, 8 μmol of adenosine trisphosphate (ATP), 27 μg/measuring point of poly-(Glu4Tyr), 0.2 μCi/measuring point of 33P-gamma ATP, 1% dimethyl sulfoxide]. The reaction was stopped by adding EDTA solution (250 mmol, pH 7.0, 10 μl/measuring point).
(§2) From each reaction batch, 10 μl was applied to P30 filter strips (Wallac Company), and non-incorporated 33P-ATP was removed by subjecting the filter strips to three washing cycles for 10 minutes each in 0.5% phosphoric acid. After the filter strips were dried for one hour at 70° C., the filter strips were covered with scintillator strips (MeltiLex™ A, Wallac Company) and baked for one hour at 90° C. The amount of incorporated 33P (substrate phosphorylation) was determined by scintillation measurement in a gamma-radiation measuring device (Wallac).

Test [3] has as its system NCI-H460, human non-small-cell lung cancer cells. As to the kind of experiment: Proliferation assay, H460. The test is classed as cell-based. The note with it: NCI-H460, 96 h, 4 days incubation, crystal violet.
From the text: as §1

Test [4] relates to DU 145, hormone-independent human prostate cancer cells. The test can be described thus: Proliferation assay, DU145. The test is classed as cell-based. The conditions noted are these: DU-145, 96 h, 4 days incubation, crystal violet.
From the text: as §1

The next test deals with MaTu-ADR. As to the kind of experiment: Proliferation assay, MaTu-ADR. The test is classed as cell-based. The conditions noted are these: Homo sapiens, 96 h, MaTu-ADR cells, 4 days incubation, crystal violet.
From the text: as §1

A further test concerns the target T3, CDK1/CycB (Homo sapiens, UniProt P06493).
T3 construct: GST; purchased ProQinase GmbH, Freiburg; host or cells: baculovirus-infected insect cells (Sf9)
The test can be described thus: CDK1/CycB Kinase Assay. It counts as biochemical. The conditions noted are these: histone IIIS substrate, 33P-ATP, 15 minutes at 22° C. The procedure: Recombinant CDK1- and CycB-GST-fusion proteins, purified from baculovirus-infected insect cells (Sf9), were purchased from ProQinase GmbH, Freiburg. Histone IIIS, used as a kinase substrate, is available commercially from the Sigma Company.
The reaction was stopped by adding EDTA solution (250 mmol, pH 8.0, 14 μl/measuring point).
as §2

Setting [5] is: poly-(Glu4Tyr) substrate, read-out: VEGF-R2 IC50.

T3 sequence (P06493 whole entry): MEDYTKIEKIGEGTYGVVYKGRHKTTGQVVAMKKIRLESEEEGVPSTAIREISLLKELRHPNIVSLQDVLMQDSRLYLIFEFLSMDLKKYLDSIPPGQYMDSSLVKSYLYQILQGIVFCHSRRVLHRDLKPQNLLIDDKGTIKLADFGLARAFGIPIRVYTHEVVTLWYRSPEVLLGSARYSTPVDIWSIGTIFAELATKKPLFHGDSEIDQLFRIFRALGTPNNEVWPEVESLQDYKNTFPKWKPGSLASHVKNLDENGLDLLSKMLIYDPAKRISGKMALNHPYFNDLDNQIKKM
T3 sequence (P14635 whole entry partner): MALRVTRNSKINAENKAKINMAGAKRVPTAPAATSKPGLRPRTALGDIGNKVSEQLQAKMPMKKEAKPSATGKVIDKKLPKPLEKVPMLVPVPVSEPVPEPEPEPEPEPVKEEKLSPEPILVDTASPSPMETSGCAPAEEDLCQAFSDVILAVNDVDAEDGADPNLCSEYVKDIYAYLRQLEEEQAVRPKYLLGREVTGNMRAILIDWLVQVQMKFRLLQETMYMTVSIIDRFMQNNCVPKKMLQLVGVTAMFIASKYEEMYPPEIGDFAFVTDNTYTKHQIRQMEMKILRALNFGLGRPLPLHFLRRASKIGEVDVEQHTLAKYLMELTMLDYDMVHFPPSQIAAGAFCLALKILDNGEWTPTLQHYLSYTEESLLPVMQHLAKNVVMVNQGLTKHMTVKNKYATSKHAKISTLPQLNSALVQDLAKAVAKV
T2 sequence (P35968 20-1356): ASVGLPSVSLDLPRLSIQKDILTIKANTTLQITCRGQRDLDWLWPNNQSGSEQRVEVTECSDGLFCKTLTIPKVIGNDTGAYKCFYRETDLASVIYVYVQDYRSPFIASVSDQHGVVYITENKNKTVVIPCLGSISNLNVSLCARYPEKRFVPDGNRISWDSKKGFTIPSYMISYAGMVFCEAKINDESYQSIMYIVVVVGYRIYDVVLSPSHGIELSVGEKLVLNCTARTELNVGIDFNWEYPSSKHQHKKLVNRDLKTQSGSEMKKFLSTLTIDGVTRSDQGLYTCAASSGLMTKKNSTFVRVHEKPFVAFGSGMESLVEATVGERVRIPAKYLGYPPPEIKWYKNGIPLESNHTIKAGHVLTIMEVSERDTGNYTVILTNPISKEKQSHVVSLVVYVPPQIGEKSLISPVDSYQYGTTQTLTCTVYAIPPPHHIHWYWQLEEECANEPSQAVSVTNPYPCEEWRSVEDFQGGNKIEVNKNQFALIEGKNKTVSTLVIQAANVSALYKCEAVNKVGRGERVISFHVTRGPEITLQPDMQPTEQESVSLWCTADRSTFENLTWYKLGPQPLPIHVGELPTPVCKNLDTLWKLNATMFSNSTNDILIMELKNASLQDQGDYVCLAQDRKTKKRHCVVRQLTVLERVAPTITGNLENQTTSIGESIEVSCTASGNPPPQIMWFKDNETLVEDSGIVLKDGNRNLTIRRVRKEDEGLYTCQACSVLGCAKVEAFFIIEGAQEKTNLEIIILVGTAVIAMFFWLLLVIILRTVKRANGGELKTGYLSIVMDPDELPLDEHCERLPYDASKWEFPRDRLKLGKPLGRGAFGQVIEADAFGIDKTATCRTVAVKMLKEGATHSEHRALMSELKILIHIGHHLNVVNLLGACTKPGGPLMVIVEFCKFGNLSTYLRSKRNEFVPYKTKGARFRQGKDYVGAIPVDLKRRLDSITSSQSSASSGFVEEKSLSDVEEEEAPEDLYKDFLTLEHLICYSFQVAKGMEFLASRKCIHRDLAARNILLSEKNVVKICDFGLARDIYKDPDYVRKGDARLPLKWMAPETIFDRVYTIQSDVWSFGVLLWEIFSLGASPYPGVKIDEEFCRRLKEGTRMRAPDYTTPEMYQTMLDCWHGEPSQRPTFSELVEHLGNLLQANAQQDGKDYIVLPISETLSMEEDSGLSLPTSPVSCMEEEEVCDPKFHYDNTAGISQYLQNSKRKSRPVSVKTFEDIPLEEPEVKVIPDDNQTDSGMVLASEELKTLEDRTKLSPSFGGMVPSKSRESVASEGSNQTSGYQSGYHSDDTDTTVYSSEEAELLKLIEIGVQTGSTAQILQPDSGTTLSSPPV

By pIC50 is commonly meant −log10 of the IC50, conventionally taken in molar units. On to `CCOC(=O)N=S(C)(=O)c1ccc(Nc2ncc(Br)c(N[C@H](COC)[C@@H](C)O)n2)cc1` (mixture of isomers) [Example 1.34, (RS)-S-{4-[(5-bromo-4-{[(1R,2R)-2-hydroxy-1-(methoxymethyl)propyl]amino}pyrimidin-2-yl)amino]phenyl}-N-(ethoxycarbonyl)-S-methyl sulfoximide], for which the negative-log IC50 (pIC50) in test [1] is 6.10; on CDK2/CycE, 7.55; in test [2] (setting [5]) it was 6.28.

On to `CCC(Sc1nc(Nc2ccc(S(C)(=N)=O)cc2)ncc1Br)C(C)O` (racemic) [Example 3.6, (RS)-S-[4-({5-bromo-4-[(RS,RS)-(1-ethyl-2-hydroxypropyl)sulfanyl]pyrimidin-2-yl}amino)phenyl]-S-methyl sulfoximide], for which the pIC50 in test [1] was 7.10; in test [3], 7.70; in test [4] it was 7.70; with MaTu-ADR, 7.70; on CDK2/CycE, 7.74; on CDK1/CycB it was 7.66.

Take `C[C@H](CO)Nc1nc(Nc2ccc(S(C)(=O)=NS(=O)(=O)CC[Si](C)(C)C)cc2)ncc1Br` (mixture of isomers) [Example 2.1, (RS)-S-[4-({5-bromo-4-[(R)-(2-hydroxy-1-methylethyl)amino]pyrimidin-2-yl}amino)phenyl]-S-methyl-N-[2-(trimethylsilyl)ethylsulfonyl]sulfoximide]: the values for the negative-log IC50 (pIC50) (in test [1]; against CDK2/CycE; in test [2] (setting [5])) were 6.05, 6.41 and 7.13, respectively.

`CCOc1nc(Nc2ccc(S(=N)(=O)CC)cc2)ncc1Br` (racemic) [Example 1.63, (RS)-S-{4-[(5-bromo-4-ethoxypyrimidin-2-yl)amino]phenyl}-S-ethyl sulfoximide]: the pIC50 was 6.05 in test [1], 7.20 at CDK2/CycE, 6.70 at CDK1/CycB and 7.05 in test [2] (setting [5]).

As to `CS(=N)(=O)c1ccc(Nc2ncc(Br)c(Nc3ccccc3)n2)cc1` (racemic) [Example 2.3, (RS)-S-(4-{[5-bromo-4-(phenylamino)pyrimidin-2-yl]amino}phenyl)-S-methyl sulfoximide], the pIC50 in test [1] was 6.52; in test [3] it was 6.40; in test [4] it was 6.72; in the test on MaTu-ADR, 6.92; against CDK1/CycB, 6.80.

Turning to `C[C@@H](O)[C@@H](C)Nc1nc(Nc2ccc(S(C)(=N)=O)cc2)ncc1Br` (single isomer, unassigned) [Example 1.2], the negative-log IC50 (pIC50) in test [3] is 7.52; in test [4], 7.40; in the test on MaTu-ADR, 7.40.

On to `C[C@H](CO)Nc1nc(Nc2ccc(S(=O)(CC3CC3)=NS(=O)(=O)CC[Si](C)(C)C)cc2)ncc1Br` (mixture of isomers) [Example 1.7, (RS)-S-[4-({5-bromo-4-[(R)-(2-hydroxy-1-methylethyl)amino]pyrimidin-2-yl}amino)phenyl]-S-(cyclopropylmethyl)-N-[2-(trimethylsilyl)ethylsulfonyl]sulfoximide], for which the pIC50 was 5.96 in test [1]; under 6.00 against CDK2/CycE; under 6.00 against CDK1/CycB; 6.62 in test [2] (VEGF-R2 IC50, poly-(Glu4Tyr) substrate).

`C[C@@H](Nc1nc(Nc2ccc(S(=N)(=O)CCO)cc2)ncc1Br)C(C)(C)O` (single isomer, unassigned) [Example 1.14]: the negative-log IC50 (pIC50) in test [1] was 7.05; in test [3], 7.00; on CDK1/CycB, 8.15; in test [2] (setting [5]), 7.16.

As to `COc1cc(Nc2ncc(Br)c(O[C@H](C)[C@@H](C)O)n2)ccc1S(C)(=N)=O` (mixture of isomers) [Example 1.24, (RS)-S-[4-({5-bromo-4-[(1R,2R)-2-hydroxy-1-methylpropoxy]pyrimidin-2-yl}amino)-2-methoxyphenyl]-S-methyl sulfoximide], the pIC50 was over 7.00 in test [1]; 7.15 in test [3]; 6.89 in test [4]; 7.10 in the test on MaTu-ADR; 8.30 against CDK1/CycB; 6.82 in test [2] (setting [5]).

With `CCS(=N)(=O)c1ccc(Nc2ncc(Br)c(N[C@H](C)[C@@H](C)O)n2)cc1` (mixture of isomers) [Example 1.51, (RS)-S-[4-({5-bromo-4-[(1R,2R)-(2-hydroxy-1-methylpropyl)amino]pyrimidin-2-yl}amino)phenyl]-S-ethyl sulfoximide], the pIC50 was 7.30 in test [3]; 7.30 in test [4]; 7.22 in the test with MaTu-ADR; 8.30 on CDK1/CycB; 7.59 in test [2] (setting [5]).

Consider `C[C@@H](Nc1nc(Nc2ccc(S(C)(=N)=O)cc2)ncc1Br)C(C)(C)O` (mixture of isomers) [Example 1.41, (RS)-S-[4-({5-bromo-4-[(R)-(2-hydroxy-1,2-dimethylpropyl)amino]pyrimidin-2-yl}amino)phenyl]-S-methyl sulfoximide], for which the pIC50 in test [1] was 7.10; in test [3], 7.15; in test [4] it was 7.05; in the test with MaTu-ADR it was 7.15.

As to `CCS(=N)(=O)c1ccc(Nc2ncc(Br)c(N[C@H](COC)[C@@H](C)O)n2)cc1` (mixture of isomers) [Example 1.48, (RS)-S-{4-[(5-bromo-4-{[(1R,2R)-2-hydroxy-1-(methoxymethyl)-propyl]amino}pyrimidin-2-yl)amino]phenyl}-S-ethyl sulfoximide], the pIC50 in test [3] is 6.52; in test [4], 6.40; in test [2] (setting [5]), 6.57.

With `CN=S(C)(=O)c1ccc(Nc2ncc(Br)c(N[C@H](C)[C@@H](C)O)n2)cc1` (mixture of isomers) [Example 1.28, (RS)-S-[4-({5-bromo-4-[(1R,2R)-(2-hydroxy-1-methylpropyl)amino]pyrimidin-2-yl}amino)phenyl]-N,S-dimethyl-sulfoximide], the pIC50 was 6.92 in test [3]; 6.70 in test [4]; 6.70 in the test on MaTu-ADR; 8.15 against CDK2/CycE; 7.85 on CDK1/CycB.
